Assay results as given in US20230102554A1 (GB002, INC., priority 2019, published 2023).
pIC50: −log10 of the molar value.

Legend:
[1] = target: T1, Human PDGFRβ, cytoplasmic domain (GST-PDGFRβ) (Homo sapiens, UniProt P09619); assay: Human PDGFRβ biochemical inhibition assay (off-chip Mobility Shift Assay)
T1 construct: made in house
In short: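 GST-tagged cytoplasmic domain (aa 557-1106) from baculovirus was incubated 1 h at room temperature with compound, CSKtide, ATP at Km and Mg²⁺ in HEPES buffer, pH 7.5. Phosphorylated and unphosphorylated peptide were separated by off-chip mobility shift, and the product ratio P/(P+S) gave percent inhibition.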

[2] = target: T2, Human PDGFRα, cytoplasmic domain (GST-PDGFRα) (Homo sapiens, UniProt P16234); assay: Human PDGFRα biochemical inhibition assay (off-chip Mobility Shift Assay)
T2 construct: made in house
T2 sequence (P16234 550-1089 T674I): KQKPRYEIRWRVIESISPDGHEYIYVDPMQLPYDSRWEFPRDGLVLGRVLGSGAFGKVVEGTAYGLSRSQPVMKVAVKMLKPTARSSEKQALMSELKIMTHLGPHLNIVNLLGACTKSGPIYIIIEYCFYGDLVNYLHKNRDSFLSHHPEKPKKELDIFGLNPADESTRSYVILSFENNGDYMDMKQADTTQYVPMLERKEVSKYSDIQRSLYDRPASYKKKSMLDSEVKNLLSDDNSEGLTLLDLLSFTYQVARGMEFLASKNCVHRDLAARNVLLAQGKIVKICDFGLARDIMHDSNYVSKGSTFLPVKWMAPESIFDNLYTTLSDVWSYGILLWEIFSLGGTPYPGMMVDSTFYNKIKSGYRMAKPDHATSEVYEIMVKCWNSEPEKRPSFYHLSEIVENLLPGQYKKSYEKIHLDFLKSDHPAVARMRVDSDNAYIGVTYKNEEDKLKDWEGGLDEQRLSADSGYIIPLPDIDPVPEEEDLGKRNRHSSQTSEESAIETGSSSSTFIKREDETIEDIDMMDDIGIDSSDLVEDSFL

T1 sequence (P09619 with tags, fused parts or gaps): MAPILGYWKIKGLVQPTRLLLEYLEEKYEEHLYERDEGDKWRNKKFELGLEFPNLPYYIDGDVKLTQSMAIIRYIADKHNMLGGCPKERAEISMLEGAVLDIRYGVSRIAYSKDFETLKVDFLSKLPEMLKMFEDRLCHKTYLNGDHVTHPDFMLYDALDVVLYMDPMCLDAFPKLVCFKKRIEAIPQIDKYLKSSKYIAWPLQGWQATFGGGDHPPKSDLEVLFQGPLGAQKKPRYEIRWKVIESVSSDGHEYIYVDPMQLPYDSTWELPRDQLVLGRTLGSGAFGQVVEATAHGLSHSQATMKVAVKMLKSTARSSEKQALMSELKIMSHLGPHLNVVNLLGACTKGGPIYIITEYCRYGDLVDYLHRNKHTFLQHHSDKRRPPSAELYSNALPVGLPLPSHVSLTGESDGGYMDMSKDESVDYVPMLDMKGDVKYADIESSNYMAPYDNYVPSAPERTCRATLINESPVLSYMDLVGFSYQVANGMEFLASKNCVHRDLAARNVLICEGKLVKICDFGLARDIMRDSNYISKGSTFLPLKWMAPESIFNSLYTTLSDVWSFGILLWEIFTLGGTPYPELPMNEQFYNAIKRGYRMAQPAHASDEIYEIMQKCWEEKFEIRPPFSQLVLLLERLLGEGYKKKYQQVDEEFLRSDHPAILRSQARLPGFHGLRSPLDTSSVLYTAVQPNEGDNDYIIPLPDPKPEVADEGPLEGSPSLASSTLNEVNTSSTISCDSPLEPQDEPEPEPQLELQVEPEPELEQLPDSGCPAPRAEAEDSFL

Row | Structure (SMILES) | pIC50 [1] | pIC50 [2]
1 | CCn1cc2ncc(N[C@@H](C)c3cc(NC(=O)c4cnn(C(C)C)c4)ccc3F)nc2n1 [Compound 313, (S)-N-(3-(1-((2-ethyl-2H-pyrazolo[3,4-b]pyrazin-6-yl)amino)ethyl)-4-fluorophenyl)-1-isopropyl-1H-pyrazole-4-carboxamide] | > 6.52 | > 6.52
2 | CCn1cc2ncc(N[C@@H](C)c3cccc(NC(=O)c4ccc(CN5CC6(COC6)C5)c(C(F)F)c4)c3)nc2n1 [Compound 506, (S)-4-((2-oxa-6-azaspiro[3.3]heptan-6-yl)methyl)-3-(difluoromethyl)-N-(3-(1-((2-ethyl-2H-pyrazolo[3,4-b]pyrazin-6-yl)amino)ethyl)phenyl)benzamide] | > 6.52 | > 6.52
3 | CCn1cc2ncc(N[C@@H](C)c3cc(NC(=O)Cc4cncc(C(F)(F)F)c4)ccc3F)nc2n1 [Compound 685, (S)-N-(3-(1-((2-ethyl-2H-pyrazolo[3,4-b]pyrazin-6-yl)amino)ethyl)-4-fluorophenyl)-2-(5-(trifluoromethyl)pyridin-3-yl) acetamide] | 6.00 to 6.52 | > 6.52
4 | CCn1cc2ncc(N[C@@H](C)c3cccc(NC(=O)Nc4cnn(C(C)C)c4)c3)nc2n1 [Compound 733, (S)-1-(3-(1-((2-ethyl-2H-pyrazolo[3,4-b]pyrazin-6-yl)amino)ethyl)phenyl)-3-(1-isopropyl-1H-pyrazol-4-yl)urea] | 6.00 to 6.52 | > 6.52
5 | CCn1cc2ncc(N[C@@H](C)c3cccc(NC(=O)c4ccc(C(F)F)s4)c3)nc2n1 [Compound 292, (S)-5-(difluoromethyl)-N-(3-(1-((2-ethyl-2H-pyrazolo[3,4-b]pyrazin-6-yl)amino)ethyl)phenyl)thiophene-2-carboxamide] | > 6.52 | > 6.52
6 | Cc1cncc(C(=O)Nc2cccc([C@H](C)Nc3cnc4[nH]c(C5CC5)nc4c3)c2)c1 [Compound 601, (S)-N-(3-(1-((2-cyclopropyl-3H-imidazo[4,5-6]pyridin-6-yl)amino)ethyl)phenyl)-5-methylnicotinamide] | > 6.52 | > 6.52
7 | CCn1cc2ncc(N[C@@H](C)c3cc(NC(=O)Cc4cc(CN5CCN(C)CC5)c(C)cn4)ccc3C)nc2n1 [Compound 722, (S)-N-(3-(1-((2-ethyl-2H-pyrazolo[3,4-b]pyrazin-6-yl)amino)ethyl)-4-methylphenyl)-2-(5-methyl-4-((4-methylpiperazin-1-yl)methyl)pyridin-2-yl)acetamide] | ≤ 6.00 | > 6.52
8 | CCn1cc2ncc(N[C@@H](C)c3cc(NC(=O)c4cnc(C5CC5)s4)ccc3F)nc2n1 [Compound 309, (S)-2-cyclopropyl-N-(3-(1-((2-ethyl-2H-pyrazolo[3,4-b]pyrazin-6-yl)amino)ethyl)-4-fluorophenyl)thiazole-5-carboxamide] | > 6.52 | > 6.52
9 | C[C@H](Nc1cnc2cn[nH]c2n1)c1cccc(NC(=O)c2cncc(C3COC3)c2)c1 [Compound 97, (S)-N-(3-(1-((1H-pyrazolo[3,4-b]pyrazin-6-yl)amino)ethyl)phenyl)-5-(oxetan-3-yl) nicotinamide] | > 6.52 | > 6.52
10 | CCn1cc2ncc(N[C@@H](C)c3cccc(NC(=O)Cc4cccc(C(F)(F)F)n4)c3)nc2n1 [Compound 642, (S)-N-(3-(1-((2-ethyl-2H-pyrazolo[3,4-b]pyrazin-6-yl)amino)ethyl)phenyl)-2-(6-(trifluoromethyl)pyridin-2-yl) acetamide] | 6.00 to 6.52 | > 6.52
11 | Cc1cncc(C(=O)Nc2cccc([C@H](C)Nc3cncc4[nH]ncc34)c2)c1 [Compound 749, (S)-N-(3-(1-((1H-pyrazolo[3,4-c]pyridin-4-yl)amino)ethyl)phenyl)-5-methylnicotinamide] | ≤ 6.00 | ≤ 6.00
12 | CCn1cc2ncc(N[C@@H](C)c3cccc(NC(=O)Nc4cnc(N(C)C)c(C)c4)c3)nc2n1 [Compound 742, (S)-1-(6-(dimethylamino)-5-methylpyridin-3-yl)-3-(3-(1-((2-ethyl-2H-pyrazolo[3,4-b]pyrazin-6-yl)amino)ethyl)phenyl)urea] | > 6.52 | > 6.52
13 | CCn1cc2ncc(N[C@@H](C)c3cccc(NC(=O)c4cnc(CN5CC6(COC6)C5)c(Cl)c4)c3)nc2n1 [Compound 503, (S)-6-((2-oxa-6-azaspiro[3.3]heptan-6-yl)methyl)-5-chloro-N-(3-(1-((2-ethyl-2H-pyrazolo[3,4-b]pyrazin-6-yl)amino)ethyl)phenyl)nicotinamide] | 6.00 to 6.52 | 6.00 to 6.52
14 | Cc1c[nH]c2ncc(N[C@@H](C)c3cccc(NC(=O)c4ccc(C(F)F)s4)c3)nc12 [Compound 560, (S)-5-(difluoromethyl)-N-(3-(1-((7-methyl-5H-pyrrolo[2,3-b]pyrazin-2-yl)amino)ethyl)phenyl)thiophene-2-carboxamide] | > 6.52 | > 6.52

Next, values leading:

Row | pIC50 [1] | pIC50 [2] | Structure (SMILES)
15 | ≤ 6.00 | > 6.52 | CCn1cc2ncc(N[C@@H](C)c3cccc(NC(=O)c4ccc(C(=O)N5CC[C@@H](N)C5)c(C)c4)c3)nc2n1 [Compound 465, 4-((R)-3-aminopyrrolidine-1-carbonyl)-N-(3-((S)-1-((2-ethyl-2H-pyrazolo[3,4-b]pyrazin-6-yl)amino)ethyl)phenyl)-3-methylbenzamide]
16 | > 6.52 | > 6.52 | C[C@H](Nc1cnc2cnn(C)c2n1)c1cccc(NC(=O)c2cnc(C(F)F)s2)c1 [Compound 141, (S)-2-(difluoromethyl)-N-(3-(1-((1-methyl-1H-pyrazolo[3,4-b]pyrazin-6-yl)amino)ethyl)phenyl)thiazole-5-carboxamide]
17 | 6.00 to 6.52 | > 6.52 | C[C@H](Nc1cnc2cnn(C)c2n1)c1cccc(NC(=O)c2cncc(CO)c2)c1 [Compound 106, (S)-5-(hydroxymethyl)-N-(3-(1-((1-methyl-1H-pyrazolo[3,4-b]pyrazin-6-yl)amino)ethyl)phenyl)nicotinamide]
18 | 6.00 to 6.52 | > 6.52 | CCNc1ncc(C(=O)Nc2cccc([C@H](C)Nc3cnc4cn(CC)nc4n3)c2)cc1C [Compound 333, (S)-N-(3-(1-((2-ethyl-2H-pyrazolo[3,4-b]pyrazin-6-yl)amino)ethyl)phenyl)-6-(ethylamino)-5-methylnicotinamide]
19 | > 6.52 | > 6.52 | CCn1cc2ncc(N[C@@H](C)c3cccc(NC(=O)c4cnc(C(C)C)s4)c3)nc2n1 [Compound 349, (S)-N-(3-(1-((2-ethyl-2H-pyrazolo[3,4-b]pyrazin-6-yl)amino)ethyl)phenyl)-2-isopropylthiazole-5-carboxamide]
20 | > 6.52 | > 6.52 | COC(=O)c1ccc(C(=O)Nc2cccc([C@H](C)Nc3cnc4cnn(C)c4n3)c2)cc1 [Compound 211, methyl (S)-4-((3-(1-((1-methyl-1H-pyrazolo[3,4-b]pyrazin-6-yl)amino)ethyl)phenyl)carbamoyl) benzoate]
21 | > 6.52 | > 6.52 | Cc1cc(C(=O)Nc2cccc([C@H](C)Nc3cnc4cnn(C)c4n3)c2)ccc1C(=O)OCCN [Compound 266, 2-aminoethyl (S)-2-methyl-4-((3-(1-((1-methyl-1H-pyrazolo[3,4-b]pyrazin-6-yl)amino)ethyl)phenyl)carbamoyl) benzoate]
22 | > 6.52 | > 6.52 | Cc1cc(C(=O)Nc2cccc([C@H](C)Nc3cnc4cnn(C)c4n3)c2)ccc1C(=O)OC(C)C [Compound 258, isopropyl (S)-2-methyl-4-((3-(1-((1-methyl-1H-pyrazolo[3,4-b]pyrazin-6-yl)amino)ethyl)phenyl)carbamoyl)benzoate]
23 | 6.00 to 6.52 | > 6.52 | CCn1cc2ncc(N[C@@H](C)c3cccc(NC(=O)c4cnc(C(C)O)s4)c3)nc2n1 (stereo partly drawn) [Compound 381, N-(3-((S)-1-((2-ethyl-2H-pyrazolo[3,4-b]pyrazin-6-yl)amino)ethyl)phenyl)-2-(1-hydroxyethyl)thiazole-5-carboxamide]
24 | > 6.52 | > 6.52 | CCn1cc2ncc(N[C@@H](C)c3cccc(NC(=O)c4ccc5c(c4)OC(F)(F)O5)c3)nc2n1 [Compound 442, (S)-N-(3-(1-((2-ethyl-2H-pyrazolo[3,4-b]pyrazin-6-yl)amino)ethyl)phenyl)-2,2-difluorobenzo[d][1,3]dioxole-5-carboxamide]
25 | 6.00 to 6.52 | > 6.52 | CCn1cc2ncc(N[C@@H](C)c3cccc(NC(=O)c4ccc(NC(C)C)nc4)c3)nc2n1 [Compound 395, (S)-N-(3-(1-((2-ethyl-2H-pyrazolo[3,4-b]pyrazin-6-yl)amino)ethyl)phenyl)-6-(isopropylamino)nicotinamide]
26 | > 6.52 | > 6.52 | CCn1cc2ncc(N[C@@H](C)c3cccc(NC(=O)c4ccc(C)c(Cl)c4)c3)nc2n1 [Compound 332, (S)-3-chloro-N-(3-(1-((2-ethyl-2H-pyrazolo[3,4-b]pyrazin-6-yl)amino)ethyl)phenyl)-4-methylbenzamide]
27 | > 6.52 | > 6.52 | CCOc1ccc(C(=O)Nc2cccc([C@H](C)Nc3cnc4[nH]cc(C)c4n3)c2)cn1 [Compound 570, (S)-6-ethoxy-N-(3-(1-((7-methyl-5H-pyrrolo[2,3-b]pyrazin-2-yl)amino)ethyl)phenyl)nicotinamide]
28 | 6.00 to 6.52 | > 6.52 | CCn1cc2ncc(N[C@@H](C)c3cccc(NC(=O)c4cnc(NC)c(C)c4)c3)nc2n1 [Compound 380, (S)-N-(3-(1-((2-ethyl-2H-pyrazolo[3,4-b]pyrazin-6-yl)amino)ethyl)phenyl)-5-methyl-6-(methylamino)nicotinamide]
29 | > 6.52 | > 6.52 | Cc1cc2ncc(N[C@@H](C)c3cccc(NC(=O)c4ccc(OC(F)F)nc4)c3)nc2s1 [Compound 608, (S)-6-(difluoromethoxy)-N-(3-(1-((6-methylthieno[2,3-b]pyrazin-3-yl)amino)ethyl)phenyl)nicotinamide]
